This note sets out measurements from patent US12528773B2, “Non-lysosomal glucosylceramidase inhibitors and uses thereof” (ALECTOS THERAPEUTICS INC., priority 2020, dated 2026).

Common to all, as to assay type: biochemical
The target of experiment [1] is T1, GBA2 (Homo sapiens (Human), UniProt Q9HCG7). Kind of experiment: Inhibition of GBA2 in cell lysate (4-methylumbelliferone glucopyranoside substrate).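 Also: homogenate of stably transfected HEK293T cells pre-treated with a GCase inhibitor, test compound preincubated 5 min at 37 °C, substrate reaction 20 min at 37 °C.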 Particulars: HEK293T-overexpressing GBA2 cellular homogenate, pH 5.5; read-out: GBA2 IC50.
T1 sequence (Q9HCG7 whole entry): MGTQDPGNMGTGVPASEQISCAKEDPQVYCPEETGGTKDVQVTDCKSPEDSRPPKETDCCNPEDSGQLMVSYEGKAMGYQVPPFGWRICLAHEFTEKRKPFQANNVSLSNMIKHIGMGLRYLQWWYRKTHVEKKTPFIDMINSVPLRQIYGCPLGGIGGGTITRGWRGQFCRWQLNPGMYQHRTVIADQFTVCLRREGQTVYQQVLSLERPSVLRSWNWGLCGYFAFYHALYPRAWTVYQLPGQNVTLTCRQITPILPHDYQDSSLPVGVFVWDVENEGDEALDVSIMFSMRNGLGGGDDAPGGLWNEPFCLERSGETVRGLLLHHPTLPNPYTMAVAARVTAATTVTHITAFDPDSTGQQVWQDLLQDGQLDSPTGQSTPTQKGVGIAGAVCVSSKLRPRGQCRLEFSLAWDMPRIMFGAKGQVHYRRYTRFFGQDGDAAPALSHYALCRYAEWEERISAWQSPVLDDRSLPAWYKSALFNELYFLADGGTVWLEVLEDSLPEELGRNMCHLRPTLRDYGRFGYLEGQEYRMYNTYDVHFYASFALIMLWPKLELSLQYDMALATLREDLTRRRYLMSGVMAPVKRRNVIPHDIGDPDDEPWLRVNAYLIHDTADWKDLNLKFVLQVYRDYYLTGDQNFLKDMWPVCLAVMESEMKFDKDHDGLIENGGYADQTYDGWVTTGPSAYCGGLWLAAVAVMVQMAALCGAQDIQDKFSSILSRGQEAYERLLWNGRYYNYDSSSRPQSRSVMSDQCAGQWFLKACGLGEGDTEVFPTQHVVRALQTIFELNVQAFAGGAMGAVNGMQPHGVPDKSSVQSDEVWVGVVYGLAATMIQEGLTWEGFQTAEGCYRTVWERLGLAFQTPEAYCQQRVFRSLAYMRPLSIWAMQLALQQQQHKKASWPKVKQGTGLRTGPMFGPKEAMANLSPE
Experiment [2] deals with rat intestinal alpha-glucosidases. The experiment in a line: Inhibition of rat intestinal alpha-glucosidases (rat intestinal lysate, glucose detection). Particulars: compound concentration 25 μM, sucrose as substrate. The procedure, abridged:
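Rat intestinal acetone-powder lysate in citrate-phosphate pH 6.0 with 50 or 25 μM compound, 3.3% DMSO, 37 °C, 20 min. Sucrose reactions used 2.1 mg/mL lysate and 40 mM sucrose; maltose reactions 0.69 mg/mL lysate and 10 mM maltose. Glucose was detected by Amplex Red fluorescence at 10 min, or by hexokinase absorbance at 340 nm, relative to no-compound wells.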

The target in experiment [3] is T1, GBA2. The experiment in a line: Binding specificity for GBA2 over other molecules, Ki or IC50 ratio. The text has this: In some embodiments, one or more of the compounds according to the invention may specifically bind a GBA2. In alternative embodiments, one or more of the compounds according to the invention may specifically bind the active site of a GBA2. […] In alternative embodiments, one or more of the compounds according to the invention may specifically bind the human non-lysosomal glucosylceramidase (GBA2) over the human lysosomal glucosylceramidase (GCase) and/or the human cytosolic glucosylceramidase (GBA3). In alternative embodiments, one or more of the compounds according to the invention may specifically bind the human non-lysosomal glucosylceramidase (GBA2) over the human glucosylceramide synthase (GCS). In alternative embodiments, one or more of the compounds according to the invention may specifically bind the human non-lysosomal glucosylceramidase (GBA2) over an intestinal alpha-glucosidase, where the intestinal alpha-glucosidase may be a sucrase-isomaltase or a maltase-glucoamylase.

Broadly, the IC50 is the concentration that gives 50% inhibition.

With `CC(C)(F)[C@H]1CC[C@@H](CN2C[C@@H](O)[C@H](O)[C@@H](O)C2)CC1` [Example 3, (3S,4R,5R)-1-(((1s,4S)-4-(2-fluoropropan-2-yl)cyclohexyl)methyl)piperidine-3,4,5-triol], the IC50 on GBA2 [1] is < 0.1 µM. Also, in experiment [2], the “rat α-glu. (% inhib.)” value turned out to be 1%. In addition, the “binding specificity, IC50(other molecule)/IC50(GBA2) or Ki ratio” value on GBA2 [3] is reported as “enhanced binding specificity”.

With `O[C@H]1[C@H](O)CN(C[C@@H]2CCCN(c3ncccc3C(F)(F)F)C2)C[C@@H]1O` [Example 36, (3S,4S,5R)-1-(((S)-1-(3-(trifluoromethyl)pyridin-2-yl)piperidin-3-yl)methyl)piperidine-3,4,5-triol], the half-inhibitory concentration (IC50) on GBA2 [1] is < 0.1 µM. Moreover, the “rat α-glu. (% inhib.)” value in experiment [2] came out at 0%. Also, the “binding specificity, IC50(other molecule)/IC50(GBA2) or Ki ratio” value on GBA2 [3] is reported as “enhanced binding specificity”.

For `O[C@H]1[C@H](O)CN(CCc2c(F)cc(OCC3CC3)cc2F)C[C@@H]1O` [Example 9, (3S,4r,5R)-1-(4-(cyclopropylmethoxy)-2,6-difluorophenethyl)piperidine-3,4,5-triol], the 50% inhibitory concentration (IC50) on GBA2 [1] was < 0.1 µM. In addition, in experiment [2], the “rat α-glu. (% inhib.)” value came out at 0%. The “binding specificity, IC50(other molecule)/IC50(GBA2) or Ki ratio” value on GBA2 [3] is given as “enhanced binding specificity”.

For `O[C@H]1[C@H](O)CN(C[C@H]2CC[C@@H](C(F)(F)F)CC2)C[C@@H]1O` [Example 2, (3S,4R,5R)-1-(((1s,4S)-4-(trifluoromethyl)cyclohexyl)methyl)piperidine-3,4,5-triol], the IC50 at GBA2 [1] is < 0.1 µM. Besides, the “rat α-glu. (% inhib.)” value in experiment [2] stood at 4%. The “binding specificity, IC50(other molecule)/IC50(GBA2) or Ki ratio” value on GBA2 [3] is “enhanced binding specificity”.

For `O[C@H]1[C@H](O)CN(CCc2c(F)ccc(Cl)c2F)C[C@@H]1O` [Example 7, (3S,4r,5R)-1-(3-chloro-2,6-difluorophenethyl)piperidine-3,4,5-triol], on GBA2 [1], the 50% inhibitory concentration (IC50) is < 0.1 µM. Besides, in experiment [2], the “rat α-glu. (% inhib.)” value is recorded as 0%. Further, the “binding specificity, IC50(other molecule)/IC50(GBA2) or Ki ratio” value at GBA2 [3] is “enhanced binding specificity”.

For `O[C@H]1[C@H](O)CN(C[C@H]2CCCN(c3cccc4scnc34)C2)C[C@@H]1O` [Example 35, (3S,4R,5R)-1-(((R)-1-(benzo[d]thiazol-4-yl)piperidin-3-yl)methyl)piperidine-3,4,5-triol], at GBA2 [1], the IC50 is < 0.1 µM. In experiment [2], the “rat α-glu. (% inhib.)” value stood at 7%. The “binding specificity, IC50(other molecule)/IC50(GBA2) or Ki ratio” value on GBA2 [3] was “enhanced binding specificity”.

On to `O[C@H]1[C@H](O)CN(CCc2c(F)cc(N3CCOCC3)cc2F)C[C@@H]1O` [Example 12, (3S,4r,5R)-1-(2,6-difluoro-4-morpholinophenethyl)piperidine-3,4,5-triol], for which the 50% inhibitory concentration (IC50) at GBA2 [1] was < 0.1 µM. In addition, the “rat α-glu. (% inhib.)” value in experiment [2] is 4%. Moreover, the “binding specificity, IC50(other molecule)/IC50(GBA2) or Ki ratio” value on GBA2 [3] was “enhanced binding specificity”.

`O[C@H]1[C@H](O)CN(C[C@H]2CCN(c3nc(C(F)(F)F)cs3)C2)C[C@@H]1O` [Example 21, (3S,4R,5R)-1-(((R)-1-(4-(trifluoromethyl)thiazol-2-yl)pyrrolidin-3-yl)methyl)piperidine-3,4,5-triol]: at GBA2 [1], the concentration for half-maximal inhibition (IC50) was < 0.1 µM. Besides, the “rat α-glu. (% inhib.)” value in experiment [2] came to 6%. Besides, the “binding specificity, IC50(other molecule)/IC50(GBA2) or Ki ratio” value at GBA2 [3] is given as “enhanced binding specificity”.

`O[C@H]1[C@H](O)CN(C[C@H]2CC[C@H](C(F)(F)F)CC2)C[C@@H]1O` [Example 1, (3S,4R,5R)-1-(((1r,4R)-4-(trifluoromethyl)cyclohexyl)methyl)piperidine-3,4,5-triol]: the IC50 at GBA2 [1] is < 0.1 µM. Also, the “rat α-glu. (% inhib.)” value in experiment [2] is on record as 0%. In addition, on GBA2 [3], the “binding specificity, IC50(other molecule)/IC50(GBA2) or Ki ratio” value is reported as “enhanced binding specificity”.

On to `Cc1noc(C)c1-c1cc(F)c(CCN2C[C@@H](O)[C@H](O)[C@@H](O)C2)c(F)c1` [Example 14, (3S,4r,5R)-1-(4-(3,5-dimethylisoxazol-4-yl)-2,6-difluorophenethyl)piperidine-3,4,5-triol], for which, at GBA2 [1], the concentration for half-maximal inhibition (IC50) is < 0.1 µM. The “rat α-glu. (% inhib.)” value in experiment [2] is given as 2%. Moreover, the “binding specificity, IC50(other molecule)/IC50(GBA2) or Ki ratio” value on GBA2 [3] is on record as “enhanced binding specificity”.

In the case of `O[C@H]1[C@H](O)CN(C[C@H]2CCN(c3cnccc3C(F)(F)F)C2)C[C@@H]1O` [Example 20, (3S,4R,5R)-1-(((R)-1-(4-(trifluoromethyl)pyridin-3-yl)pyrrolidin-3-yl)methyl)piperidine-3,4,5-triol], the IC50 at GBA2 [1] is < 0.1 µM. For the same compound, the “rat α-glu. (% inhib.)” value in experiment [2] was determined as 4%. The “binding specificity, IC50(other molecule)/IC50(GBA2) or Ki ratio” value on GBA2 [3] is “enhanced binding specificity”.

In the case of `O[C@H]1[C@H](O)CN(C[C@H]2CCCN(c3cccc(C(F)(F)F)n3)C2)C[C@@H]1O` [Example 30, (3S,4R,5R)-1-(((R)-1-(6-(trifluoromethyl)pyridin-2-yl)piperidin-3-yl)methyl)piperidine-3,4,5-triol], the IC50 at GBA2 [1] was < 0.1 µM. For the same compound, the “rat α-glu. (% inhib.)” value in experiment [2] is 6%. For the same compound, at GBA2 [3], the “binding specificity, IC50(other molecule)/IC50(GBA2) or Ki ratio” value is recorded as “enhanced binding specificity”.
